Measurements reported in the supplement of paper PMC6045584.
± gives the standard deviation of the averaged measurements.

Compound: COc1cc(CCc2cc(NC(=O)c3ccc(N4CC(C)NC(C)C4)cc3)n[nH]2)cc(OC)c1 [AZD4547]
Experiment: surviving fraction relative to DMSO-only wells; higher = less growth inhibition
Details: 0.5 nM; exposure time: 5 days
How it was run: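 Luminescence normalised to the median of DMSO-only wells defines surviving fraction, with viability read by CellTiter-Glo. Signal was recorded after 10 minutes at room temperature, once log-phase tumour cell lines seeded at 250–500 cells per well in 384-well plates had spent 24 hours settling and then five days under continuous exposure to inhibitors at 0.5, 1, 5, 10, 50, 100, 500 and 1000 nM.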

Point of comparison: ZR751 BREAST, surviving fraction 0.902 ± 0.092. Against it:
- MDAMB231 BREAST — within error, 0.973 ± 0.018
- MDAMB361 BREAST — within error, 0.908 ± 0.033
- MDAMB436 BREAST — higher, 1.05 ± 0.053
- MDAMB453 BREAST — within error, 1.02 ± 0.074
- MDAMB468 BREAST — within error, 1.04 ± 0.11
- MFM223 BREAST — within error, 1.02 ± 0.11
- MG63 BONE — within error, 0.9447 ± 0.006
- MHM BONE — within error, 0.961 ± 0.016
- NCIH441 LUNG — within error, 0.977 ± 0.026
- NOS1 BONE — within error, 0.971 ± 0.12
- NY BONE — within error, 0.984 ± 0.052
- OS25HAL BONE — within error, 0.99 ± 0.018
- OSHN BONE — higher, 1.06 ± 0.02
- PCI30 HEADNECK — within error, 0.998 ± 0.026
- RDES SOFT TISSUE — higher, 1.28 ± 0.16
- S68 BREAST — within error, 0.981 ± 0.08
- SAOS2 BONE — higher, 1.046 ± 0.0017
- SCC36 HEADNECK — within error, 0.993 ± 0.053
- SCC47 HEADNECK — within error, 0.967 ± 0.14
- SCC90 HEADNECK — within error, 1.07 ± 0.095
- SG27 HEADNECK — within error, 0.937 ± 0.05
- SG28 HEADNECK — within error, 0.977 ± 0.13
- SG31 HEADNECK — within error, 1.21 ± 0.24
- SG32 HEADNECK — within error, 0.915 ± 0.25
- SG43 HEADNECK — within error, 1.02 ± 0.37
- SIHA CERVIX — higher, 1.06 ± 0.037
- SJSA1 BONE — within error, 1.01 ± 0.028
- SKBR3 BREAST — within error, 1.07 ± 0.14
- SNU475 LIVER — within error, 0.956 ± 0.021
- SUM44 BREAST — within error, 0.9847 ± 0.0095
- SUM149 BREAST — within error, 0.989 ± 0.054
- SUM149.B1*.S BREAST — higher, 1.05 ± 0.013
- SUM159 BREAST — within error, 1.16 ± 0.24
- SYO1 SYNOVIAL — within error, 0.897 ± 0.051
- T47D BREAST — within error, 1.02 ± 0.044
- U2OS BONE — within error, 0.992 ± 0.042
- VCAP PROSTATE — within error, 0.966 ± 0.078
- VP229 BREAST — higher, 1.32 ± 0.12
- YAMATO SYNOVIAL — higher, 1.19 ± 0.024

Same assay, conditions: 1 nM; exposure time: 5 days

Point of comparison: MFM223 BREAST, surviving fraction 1.03 ± 0.034. Against it:
- MDAMB231 BREAST — within error, 1.02 ± 0.025
- MDAMB361 BREAST — lower, 0.925 ± 0.028
- MDAMB436 BREAST — lower, 0.9823 ± 0.0041
- MDAMB453 BREAST — higher, 1.094 ± 0.01
- MDAMB468 BREAST — within error, 1.02 ± 0.055
- MG63 BONE — within error, 0.992 ± 0.012
- MHM BONE — within error, 1 ± 0.006
- NCIH441 LUNG — within error, 1.09 ± 0.035
- NOS1 BONE — within error, 1.07 ± 0.13
- NY BONE — the same, 1.03 ± 0.039
- OS25HAL BONE — within error, 1.02 ± 0.02
- OSHN BONE — within error, 1.09 ± 0.044
- PCI30 HEADNECK — within error, 0.966 ± 0.082
- RDES SOFT TISSUE — higher, 1.29 ± 0.047
- S68 BREAST — within error, 1.04 ± 0.052
- SAOS2 BONE — higher, 1.077 ± 0.0081
- SCC36 HEADNECK — within error, 1.07 ± 0.081
- SCC47 HEADNECK — within error, 1.02 ± 0.066
- SCC90 HEADNECK — within error, 1.06 ± 0.11
- SG27 HEADNECK — within error, 0.959 ± 0.078
- SG28 HEADNECK — higher, 1.14 ± 0.023
- SG31 HEADNECK — within error, 0.886 ± 0.12
- SG32 HEADNECK — within error, 1 ± 0.15
- SG43 HEADNECK — within error, 0.896 ± 0.17
- SIHA CERVIX — within error, 1.08 ± 0.05
- SJSA1 BONE — within error, 1.08 ± 0.08
- SKBR3 BREAST — higher, 1.2 ± 0.05
- SNU475 LIVER — within error, 1.02 ± 0.059
- SUM44 BREAST — within error, 1.02 ± 0.029
- SUM149 BREAST — within error, 1.05 ± 0.11
- SUM149.B1*.S BREAST — higher, 1.083 ± 0.01
- SUM159 BREAST — within error, 1.19 ± 0.22
- SYO1 SYNOVIAL — lower, 0.942 ± 0.022
- T47D BREAST — within error, 1.05 ± 0.013
- U2OS BONE — within error, 1.024 ± 0.0069
- VCAP PROSTATE — within error, 0.976 ± 0.043
- VP229 BREAST — higher, 1.38 ± 0.049
- YAMATO SYNOVIAL — higher, 1.22 ± 0.074
- ZR751 BREAST — within error, 0.949 ± 0.095

Same assay, conditions: 5 nM; exposure time: 5 days

Point of comparison: SUM159 BREAST, surviving fraction 1.15 ± 0.2. Against it:
- MDAMB231 BREAST — within error, 1.009 ± 0.0064
- MDAMB361 BREAST — within error, 1.04 ± 0.12
- MDAMB436 BREAST — within error, 1.03 ± 0.12
- MDAMB453 BREAST — within error, 1.106 ± 0.004
- MDAMB468 BREAST — within error, 1.13 ± 0.057
- MFM223 BREAST — lower, 0.616 ± 0.056
- MG63 BONE — within error, 0.929 ± 0.033
- MHM BONE — within error, 0.995 ± 0.016
- NCIH441 LUNG — within error, 1.06 ± 0.011
- NOS1 BONE — lower, 0.913 ± 0.013
- NY BONE — within error, 1.03 ± 0.049
- OS25HAL BONE — within error, 1.037 ± 0.0085
- OSHN BONE — within error, 1.09 ± 0.044
- PCI30 HEADNECK — within error, 1.09 ± 0.12
- RDES SOFT TISSUE — within error, 1.12 ± 0.084
- S68 BREAST — within error, 1.02 ± 0.25
- SAOS2 BONE — within error, 1.14 ± 0.031
- SCC36 HEADNECK — within error, 1.18 ± 0.17
- SCC47 HEADNECK — within error, 1.02 ± 0.1
- SCC90 HEADNECK — within error, 1.04 ± 0.17
- SG27 HEADNECK — lower, 0.864 ± 0.027
- SG28 HEADNECK — within error, 1.07 ± 0.093
- SG31 HEADNECK — within error, 0.994 ± 0.15
- SG32 HEADNECK — within error, 0.925 ± 0.2
- SG43 HEADNECK — lower, 0.714 ± 0.13
- SIHA CERVIX — within error, 1.11 ± 0.066
- SJSA1 BONE — within error, 1.08 ± 0.076
- SKBR3 BREAST — within error, 1.04 ± 0.079
- SNU475 LIVER — within error, 0.95 ± 0.024
- SUM44 BREAST — within error, 0.985 ± 0.042
- SUM149 BREAST — within error, 1.08 ± 0.017
- SUM149.B1*.S BREAST — within error, 1.09 ± 0.04
- SYO1 SYNOVIAL — lower, 0.744 ± 0.037
- T47D BREAST — within error, 1.06 ± 0.043
- U2OS BONE — within error, 0.95 ± 0.015
- VCAP PROSTATE — within error, 1.1 ± 0.12
- VP229 BREAST — within error, 1.42 ± 0.099
- YAMATO SYNOVIAL — within error, 1.25 ± 0.038
- ZR751 BREAST — lower, 0.838 ± 0.076

Same assay, conditions: 10 nM; exposure time: 5 days

Point of comparison: SUM149 BREAST, surviving fraction 1 ± 0.034. Against it:
- MDAMB231 BREAST — within error, 1.02 ± 0.033
- MDAMB361 BREAST — within error, 0.972 ± 0.064
- MDAMB436 BREAST — within error, 0.942 ± 0.08
- MDAMB453 BREAST — higher, 1.11 ± 0.056
- MDAMB468 BREAST — higher, 1.14 ± 0.062
- MFM223 BREAST — lower, 0.374 ± 0.041
- MG63 BONE — lower, 0.879 ± 0.048
- MHM BONE — within error, 0.993 ± 0.021
- NCIH441 LUNG — within error, 1.06 ± 0.066
- NOS1 BONE — within error, 0.937 ± 0.064
- NY BONE — lower, 0.894 ± 0.02
- OS25HAL BONE — within error, 1.04 ± 0.012
- OSHN BONE — higher, 1.11 ± 0.048
- PCI30 HEADNECK — within error, 1.09 ± 0.094
- RDES SOFT TISSUE — within error, 1.1 ± 0.12
- S68 BREAST — within error, 1.1 ± 0.18
- SAOS2 BONE — higher, 1.17 ± 0.085
- SCC36 HEADNECK — within error, 1.09 ± 0.21
- SCC47 HEADNECK — higher, 1.13 ± 0.069
- SCC90 HEADNECK — within error, 1.09 ± 0.14
- SG27 HEADNECK — lower, 0.82 ± 0.024
- SG28 HEADNECK — within error, 0.982 ± 0.026
- SG31 HEADNECK — within error, 1.01 ± 0.17
- SG32 HEADNECK — within error, 0.938 ± 0.083
- SG43 HEADNECK — lower, 0.8 ± 0.13
- SIHA CERVIX — within error, 0.985 ± 0.025
- SJSA1 BONE — higher, 1.09 ± 0.046
- SKBR3 BREAST — within error, 1.09 ± 0.13
- SNU475 LIVER — within error, 0.972 ± 0.056
- SUM44 BREAST — within error, 1.08 ± 0.064
- SUM149.B1*.S BREAST — higher, 1.09 ± 0.035
- SUM159 BREAST — within error, 1.2 ± 0.23
- SYO1 SYNOVIAL — lower, 0.737 ± 0.021
- T47D BREAST — within error, 1.04 ± 0.034
- U2OS BONE — lower, 0.901 ± 0.024
- VCAP PROSTATE — within error, 0.989 ± 0.12
- VP229 BREAST — higher, 1.38 ± 0.065
- YAMATO SYNOVIAL — higher, 1.22 ± 0.046
- ZR751 BREAST — lower, 0.887 ± 0.041
